From patent US12466831B2, “Substituted amino triazolopyrimidine and amino triazolopyrazine adenosine receptor antagonists, pharmaceutical compositions and their use” (Merck Sharp & Dohme LLC, priority 2018, dated 2025)
pIC50: −log10 of the molar value.

Legend:
[1] = biological target: T1, human A2b adenosine receptor (Homo sapiens, UniProt P29275); assay: A2b binding affinity, radioligand filtration binding assay; details: tritiated proprietary A2b antagonist, HEK293 membranes expressing human A2b
T1 construct: purchased Perkin Elmer ES-013-C; host or cells: HEK293 cells recombinantly expressing the receptor; membranes made from them
T1 sequence (P29275 1-332): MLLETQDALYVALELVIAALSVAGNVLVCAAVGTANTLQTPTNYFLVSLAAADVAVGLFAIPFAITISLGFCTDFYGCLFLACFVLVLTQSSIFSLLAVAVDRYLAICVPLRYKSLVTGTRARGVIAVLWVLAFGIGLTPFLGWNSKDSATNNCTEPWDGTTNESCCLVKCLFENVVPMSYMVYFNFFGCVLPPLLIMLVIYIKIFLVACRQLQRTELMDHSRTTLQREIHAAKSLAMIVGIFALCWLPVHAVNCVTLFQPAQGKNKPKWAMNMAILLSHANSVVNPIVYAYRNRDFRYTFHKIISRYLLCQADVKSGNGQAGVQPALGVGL
Text: (§1) Method (A) describes the procedure used to measure A2a binding affinity using radioligand binding. Method (B) describes the procedure used to measure A2a binding affinity using SPA technology. The method used to measure A2b binding affinity is also described below. The method used to determine the A2a IC50 value reported for each compound in the table is indicated next to the reported value. The A2b IC50 value measured using the A2b binding affinity assay is shown in the table next to the compound under the corresponding A2a value.
Measurement of A2b Binding Affinity
The reported affinity of the compounds of the invention for the human A2b adenosine receptor was determined experimentally using a radioligand filtration binding assay. This assay measures the amount of binding of a tritiated proprietary A2b receptor antagonist, in the presence and absence of a compound of the invention, to membranes made from HEK293 cells recombinantly expressing the human A2b adenosine receptor (Perkin Elmer, Cat. No. ES-013-C).
148 μL (135 μg/mL) membranes and 2 μL test compounds were transferred to individual wells of a 96-well polypropylene assay plate and incubated for 15 to 30 minutes at room temperature with agitation. Tritiated radioligand was diluted to a concentration of 14 nM in assay buffer (phosphate buffered saline without Magnesium and Calcium, pH 7.4; GE Healthcare Life Sciences, Cat. No. SH30256.01) and then 50 μL of the solution were transferred to each well of the assay plate. To define total and non-specific binding, wells containing 1% DMSO and 20 μM N-ethylcarboxamidoadenosine (Tocris Bioscience, Cat. No. 1691) respectively, were also included. The wells of the assay plate were incubated at room temperature for 60 minutes with agitation, then filtered using a FilterMate Harvester® (Perkin Elmer) or similar equipment through a UniFilter-96® PEI coated plate (Perkin Elmer Cat. No. 6005274 or 6005277). Filtering was achieved by aspirating the contents of the assay plate for 5 seconds, then washing and aspirating the contents three times with ice-cooled wash buffer (assay buffer supplemented with 0.0025% Brij58) and allowing the vacuum manifold to dry the plate for 30 seconds. The filter plate was incubated for at least 1 hour at 55° C. and allowed to dry. The bottom of the filter plate was then sealed with backing tape. 40 μL Ultima Gold™ (Perkin Elmer, Cat. No. 6013329) was added to each well of the filter plate and the top of the plate was sealed with TopSeal-A PLUS® clear plate seal (Perkin Elmer, Cat. No. 6050185). The plates were then incubated for at least 20 minutes, and then the amount of radioactivity remaining in each well was determined using a TopCount® (Perkin Elmer) scintillation counter. After normalization to total and non-specific binding, the percent effect at each compound concentration was calculated. The plot of percent effect versus the log of compound concentration was analyzed electronically using a 4-parameter logistic fit based on the Levenberg-Marquardt algorithm to generate IC50 values.

[2] = biological target: T2, human A2a adenosine receptor (Homo sapiens, UniProt P29274); assay: A2a binding affinity using radioligand binding, Method (A); details: Method (A): [3H]SCH58261 filtration binding, membranes expressing human A2a
T2 construct: purchased Perkin Elmer RBHA2aM400UA; host or cells: HEK293 or CHO cells (recombinant expression)
T2 sequence (P29274 whole entry): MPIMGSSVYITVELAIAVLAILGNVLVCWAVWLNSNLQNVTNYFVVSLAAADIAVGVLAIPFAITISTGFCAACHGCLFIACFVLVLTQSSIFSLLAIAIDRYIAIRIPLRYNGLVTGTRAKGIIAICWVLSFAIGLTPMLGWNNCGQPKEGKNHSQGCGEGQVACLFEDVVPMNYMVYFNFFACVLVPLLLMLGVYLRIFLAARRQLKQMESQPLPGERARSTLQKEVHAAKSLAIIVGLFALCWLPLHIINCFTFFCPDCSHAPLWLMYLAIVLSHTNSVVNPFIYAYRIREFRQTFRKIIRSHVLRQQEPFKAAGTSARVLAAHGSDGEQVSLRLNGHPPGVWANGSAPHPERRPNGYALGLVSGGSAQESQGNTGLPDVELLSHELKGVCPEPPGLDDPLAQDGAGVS
Text: as §1
The A2a receptor affinity binding assay measured the amount of binding of a tritiated ligand with high affinity for the A2a adenosine receptor to membranes made from HEK293 or CHO cells recombinantly expressing the human A2a adenosine receptor, in the presence of varying concentrations of a compound of the invention. The data were generated using either filtration binding or a homogenous scintillation proximity assay (SPA).
Method (A): Measurement of A2a Binding Affinity Using Radioligand Binding
148 μL (5 μg/mL) membranes (Perkin Elmer, Cat. No. RBHA2aM400UA) and 2 μL compounds of the invention to be tested (test compound) were transferred to individual wells of a 96-well polypropylene assay plate and incubated for 15 to 30 minutes at room temperature. [^3H] SCH58261 ((7-(2-phenylethyl)-5-amino-2-(2-furyl)-pyrazolo-[4,3-e]-1,2,4-triazolo[1,5-c]pyrimidine)) was diluted in assay buffer (50 mM Tris pH 7.4, 10 mM MgCl2, 0.005% Tween20) to a concentration of 4 nM and 50 μL transferred to each well of the assay plate. To define total and non-specific binding, wells containing 1% DMSO and 1 μM ZM241385 (Tocris Bioscience, Cat. No. 1036) respectively, were also included. The assay plate was incubated at room temperature for 60 minutes with agitation. Using a FilterMate Harvester® (Perkin Elmer), the contents of the assay plate were filtered through a UniFilter-96® PEI coated plate (Perkin Elmer Cat. No. 6005274 or 6005277). Filtering was achieved by aspirating the contents of the assay plate for 5 seconds, then washing and aspirating the contents three times with ice-cooled wash buffer (50 mM Tris-HCl pH 7.4, 150 mM NaCl) and allowing the vacuum manifold to dry the plate for 30 seconds. The filter plate was incubated for at least 1 hour at 55° C. and allowed to dry. The bottom of the filter plate was sealed with backing tape. 40 μL Ultima Gold™ (Perkin Elmer, Cat. No. 6013329) was added to each well of the filter plate and the top of the plate was sealed with TopSeal-A PLUS® clear plate seal (Perkin Elmer, Cat. No. 6050185). The plate was incubated for at least 20 minutes, and then the amount of radioactivity remaining in each well was determined using a TopCount® (Perkin Elmer) scintillation counter. After normalization to total and non-specific binding, the percent effect at each compound concentration was calculated. The plot of percent effect versus the log of compound concentration was analyzed electronically using a 4-parameter logistic fit based on the Levenberg-Marquardt algorithm to generate IC50 values.

Row | Structure (SMILES) | pIC50 [1] | pIC50 [2]
1 | Cc1c(-c2cccc(F)c2)nc(N)c2nc(C3CCCC(C)(O)C3)nn12 (single isomer, unassigned) [Example 8.11-2, (1R,3S or 1S,3R or 1R,3R or 1S,3S)-1-3-(8-amino-6-(3-fluorophenyl)-5-methyl-[1,2,4]triazolo[1,5-a]pyrazin-2-yl)-1-methylcyclohexan-1-ol] | 6.62 | 7.87
2 | Cc1nn(CC(C)(C)O)cc1N1CCC[C@@H](c2nc3c(C)c(-c4ncco4)nc(N)n3n2)C1 [Example 3.9, (R)-1-(4-(3-(5-amino-8-methyl-7-(oxazol-2-yl)-[1,2,4]triazolo[1,5-c]pyrimidin-2-yl)piperidin-1-yl)-3-methyl-1H-pyrazol-1-yl)-2-methylpropan-2-ol] | 6.26 | 10.00
3 | Cc1c(-c2ncco2)nc(N)n2nc([C@@H]3CCCN(c4cnn(CC(C)(C)O)c4C)C3)nc12 [Example 3.10, (R)-1-(4-(3-(5-amino-8-methyl-7-(oxazol-2-yl)-[1,2,4]triazolo[1,5-c]pyrimidin-2-yl)piperidin-1-yl)-5-methyl-1H-pyrazol-1-yl)-2-methylpropan-2-ol] | 6.27 | 8.68
4 | Cc1c(-c2ncco2)nc(N)n2nc([C@@H]3CCCN(c4cnn(C5CCOCC5)c4)C3)nc12 [Example 3.6, (R)-8-methyl-7-(oxazol-2-yl)-2-(1-(1-(tetrahydro-2H-pyran-4-yl)-1H-pyrazol-4-yl)piperidin-3-yl)-[1,2,4]triazolo[1,5-c]pyrimidin-5-amine] | 6.41 | 9.05
5 | Cc1c(-c2ncco2)nc(N)c2nc(C3CCC(C)(O)C3)nn12 (single isomer, unassigned) [Example 8.6, (1R,3S and 1S,3R) or (1R,3R and 1S,3S)-(8-amino-5-methyl-6-(oxazol-2-yl)-[1,2,4]triazolo[1,5-a]pyrazin-2-yl)-1-methylcyclopentan-1-ol] | 6.85 | 8.19
6 | Nc1nc(-c2ccccc2)cc2nc([C@@H]3CC(F)(F)CN3)nn12 [Example 2.1, (S)-2-(4,4-difluoropyrrolidin-2-yl)-7-phenyl-[1,2,4]triazolo[1,5-c]pyrimidin-5-amine] | – | 7.92
7 | Cc1c(-c2ncco2)nc(N)n2nc([C@H]3C[C@@H](O)C3)nc12 [Example 2.8, (1s,3s)-3-(5-amino-8-methyl-7-(oxazol-2-yl)-[1,2,4]triazolo[1,5-c]pyrimidin-2-yl)cyclobutan-1-ol] | 6.60 | 7.14
8 | Cc1c(-c2ncco2)nc(N)n2nc(C3CCN(CC(F)(F)F)C3)nc12 (racemic) [Example 9.1, (R and S)-8-methyl-7-(oxazol-2-yl)-2-(1-(2,2,2-trifluoroethyl)pyrrolidin-3-yl)-[1,2,4]triazolo[1,5-c]pyrimidin-5-amine] | 6.21 | 7.49
9 | Cc1c(-c2cccc(F)c2)nc(Br)c2nc([C@H]3C[C@@H]3C(C)(C)O)nn12 (mixture of isomers) [Example 1.2, 2-((1S,2S and 1R,2R)-2-(8-bromo-6-(3-fluorophenyl)-5-methyl-[1,2,4]triazolo[1,5-a]pyrazin-2-yl)cyclopropyl)propan-2-ol] | 6.69 | 7.63
10 | Cc1c(-c2ncco2)nc(N)n2nc(C3CCCC(C)(O)C3)nc12 (single isomer, unassigned) [Example 8.2-1, (1-R or S,3-R or S)-3-(5-amino-8-methyl-7-(oxazol-2-yl)-[1,2,4]triazolo[1,5-c]pyrimidin-2-yl)-1-methylcyclohexan-1-ol] | 5.26 | 7.51
11 | Cc1c(-c2ncco2)nc(N)n2nc([C@H]3C[C@H](c4ccc(C(C)(C)N)cn4)C3)nc12 [Example 2.20, 2-((1,3-trans)-3-(5-(2-aminopropan-2-yl)pyridin-2-yl)cyclobutyl)-8-methyl-7-(oxazol-2-yl)[l,2,4]triazolo[1,5-c]pyrimidin-5-amine] | – | 8.00
12 | Cc1c(-c2ncco2)nc(N)n2nc([C@H]3C[C@@H](c4ccc(C(C)(C)O)cn4)C3)nc12 [Example 2.18, 2-(6-((1,3-cis)-3-(5-amino-8-methyl-7-(oxazol-2-yl)-[1,2,4]triazolo[1,5-c]pyrimidin-2-yl)cyclobutyl)pyridin-3-yl)propan-2-ol] | – | 8.43
13 | Nc1nc(-c2ccccc2)cc2nc([C@@H]3CC(F)(F)CN3C(=O)C3CC3)nn12 [Example 4.3, (S)-(2-(5-amino-7-phenyl-[1,2,4]triazolo[1,5-c]pyrimidin-2-yl)-4,4-difluoropyrrolidin-1-yl)(cyclopropyl)methanone] | – | 7.83
14 | Cc1c(-c2ncco2)nc(N)n2nc([C@H]3C[C@H](c4ccc(C(C)(C)N)nc4)C3)nc12 [Example 10.6, 2-((1,3-trans)-3-(6-(2-aminopropan-2-yl)pyridin-3-yl)cyclobutyl)-8-methyl-7-(oxazol-2-yl)-[1,2,4]triazolo[1,5-c]pyrimidin-5-amine] | – | 7.80
15 | Cc1c(-c2ncco2)nc(N)n2nc([C@H]3C[C@H](c4ccc(C(C)(C)O)cn4)C3)nc12 [Example 2.19, 2-(6-((1,3-trans)-3-(5-amino-8-methyl-7-(oxazol-2-yl)-[1,2,4]triazolo[1,5-c]pyrimidin-2-yl)cyclobutyl)pyridin-3-yl)propan-2-ol] | – | 8.28
16 | Cc1c(-c2ncco2)nc(N)n2nc([C@H]3C[C@@H](c4ccc(C(C)(C)N)cn4)C3)nc12 [Example 2.21, 2-((1,3-cis)-3-(5-(2-aminopropan-2-yl)pyridin-2-yl)cyclobutyl)-8-methyl-7-(oxazol-2-yl)-[1,2,4]triazolo[1,5-c]pyrimidin-5-amine] | – | 7.58
17 | Nc1nc(-c2ncco2)cc2nc([C@@H]3CC(F)(F)CN3)nn12 [Example 2.2, (S)-2-(4,4-difluoropyrrolidin-2-yl)-7-(oxazol-2-yl)-[1,2,4]triazolo[1,5-c]pyrimidin-5-amine] | – | 6.85
